Patent US6407288B1, “Naphthylsalicylanilides as antimicrobial and antiinflammatory agents” (The Research Foundation of State University of New York, priority 2000, dated 2002)

Assays:
S. mutans = assay: MIC microdilution, gram positive; type: cell-based, Streptococcus mutans; conditions: Table 1, Gram Positive
Protocol: (§1) The MIC's for the compounds were determined by a modified microdilution tube dilution method described in “Methods for Dilution Antimicrobial Susceptibility Tests for Bacteria that Grow Aerobically” (National Committee for Clinical Laboratory Standards Approved Standards, 1997, NCCLS document M7-A4). In general the modifications were made because of the unique growth requirements for the fastidious oral organisms and for those bacteria that require anaerobic conditions. Reference is also made to “Methods for Antimicrobial Susceptibility of Anaerobic Bacteria” (National Committee for Clinical Laboratory Standards Approved Standards, 1997, NCCLS document M11-A4). Briefly, the methods were as follows. Cultures were grown for 18-24hrs (aerobic bacteria) or 48-72 hrs (anaerobic bacteria) in the appropriate medium. For aerobic bacteria full strength brain heart infusion medium (BHI, Difco) was used. For anaerobic bacteria, half strength BHI (18.5 g/L) was supplemented by adding yeast extract (10 g/L), hemin (0.29 mL of a stock solution containing 0.1 g/200 mL dH2O) and menadione (15 mL of a stock solution containing 0.15 mL in 30 mL 95% EtOH) was used. Initial cultures were diluted to approximately 1×10^8 CFU/mL for use as an inoculum. Each assay received 10 μL of the inoculum. The drugs were prepared from a stock solution contained in dimethyl sulfoxide (DMSO) and diluted into the culture medium. Final concentrations of the drugs ranged from 50 to 0.05 μg/assay. The tests were run in duplicate and were incubated appropriately with regard to oxygen requirements for 24 to 48 hrs as required. Anaerobic incubation was an atmosphere of 5% CO2, 10% H2, with the balance N2. The lowest concentration of an antimicrobial agent at which no visible growth is noted was referred to as the MIC.

S. sanguis = assay: MIC microdilution, gram positive; type: cell-based, Streptococcus sanguis; conditions: Table 1, Gram Positive
Protocol: as §1

S.salivarius = assay: MIC microdilution, gram positive; type: cell-based, Streptococcus salivarius; conditions: Table 1, Gram Positive
Protocol: as §1

P. acnes 11828 = assay: MIC microdilution, gram positive; type: cell-based, Propionibacterium acnes; conditions: Table 1, Gram Positive
Protocol: as §1

P. acnes 6922 = assay: MIC microdilution, gram positive; type: cell-based, Propionibacterium acnes; conditions: Table 1, Gram Positive
Protocol: as §1

A. viscosus = assay: MIC microdilution, gram positive; type: cell-based, Actinomyces viscosus; conditions: Table 2, Gram Positive
Protocol: as §1

S. aureus = assay: MIC microdilution, gram positive; type: cell-based, Staphlococcus aureus
Protocol: (§2) The MIC's for the compounds were determined by a modified microdilution tube dilution method described in “Methods for Dilution Antimicrobial Susceptibility Tests for Bacteria that Grow Aerobically” (National Committee for Clinical Laboratory Standards Approved Standards, 1997, NCCLS document M7-A4). In general the modifications were made because of the unique growth requirements for the fastidious oral organisms and for those bacteria that require anaerobic conditions. Reference is also made to “Methods for Antimicrobial Susceptibility of Anaerobic Bacteria” (National Committee for Clinical Laboratory Standards Approved Standards, 1997, NCCLS document M11-A4).
(§3) Briefly, the methods were as follows. Cultures were grown for 18-24hrs (aerobic bacteria) or 48-72 hrs (anaerobic bacteria) in the appropriate medium. For aerobic bacteria full strength brain heart infusion medium (BHI, Difco) was used. For anaerobic bacteria, half strength BHI (18.5 g/L) was supplemented by adding yeast extract (10 g/L), hemin (0.29 mL of a stock solution containing 0.1 g/200 mL dH2O) and menadione (15 mL of a stock solution containing 0.15 mL in 30 mL 95% EtOH) was used. Initial cultures were diluted to approximately 1×10^8 CFU/mL for use as an inoculum. Each assay received 10 μL of the inoculum. The drugs were prepared from a stock solution contained in dimethyl sulfoxide (DMSO) and diluted into the culture medium. Final concentrations of the drugs ranged from 50 to 0.05 μg/assay. The tests were run in duplicate and were incubated appropriately with regard to oxygen requirements for 24 to 48 hrs as required. Anaerobic incubation was an atmosphere of 5% CO2, 10% H2, with the balance N2. The lowest concentration of an antimicrobial agent at which no visible growth is noted was referred to as the MIC.
(§4) This embodiment describes the sensitivity of various staphylococcus strains to the compounds of the present invention. The staphylococcus species R is a strain 00-045-1209 from the Children's Hospital in Buffalo. It was isolated from the peritoneal cavity (fluid culture) of an individual. It was coagulase negative. The sensitivity of this strain was tested agaisnt several known antibiotics.

Lact 7496 = assay: MIC microdilution, gram positive; type: cell-based, Lactobacillus rhamnosus (casei); conditions: Table 2, Gram Positive
Protocol: as §1

M. luteus = assay: MIC microdilution, gram positive; type: cell-based, Micrococcus luteus; conditions: Table 2, Gram Positive
Protocol: as §1

Fuso. 25586 = assay: MIC microdilution, gram negative; type: cell-based, Fusobacterium nucleatum
Protocol: (§5) The MIC's for the compounds were determined by a modified microdilution tube dilution method described in “Methods for Dilution Antimicrobial Susceptibility Tests for Bacteria that Grow Aerobically” (National Committee for Clinical Laboratory Standards Approved Standards, 1997, NCCLS document M7-A4). In general the modifications were made because of the unique growth requirements for the fastidious oral organisms and for those bacteria that require anaerobic conditions. Reference is also made to “Methods for Antimicrobial Susceptibility of Anaerobic Bacteria” (National Committee for Clinical Laboratory Standards Approved Standards, 1997, NCCLS document M11-A4). Briefly, the methods were as follows. Cultures were grown for 18-24hrs (aerobic bacteria) or 48-72 hrs (anaerobic bacteria) in the appropriate medium. For aerobic bacteria full strength brain heart infusion medium (BHI, Difco) was used. For anaerobic bacteria, half strength BHI (18.5 g/L) was supplemented by adding yeast extract (10 g/L), hemin (0.29 mL of a stock solution containing 0.1 g/200 mL dH2O) and menadione (15 mL of a stock solution containing 0.15 mL in 30 mL 95% EtOH) was used. Initial cultures were diluted to approximately 1×10^8 CFU/mL for use as an inoculum. Each assay received 10 μL of the inoculum. The drugs were prepared from a stock solution contained in dimethyl sulfoxide (DMSO) and diluted into the culture medium. Final concentrations of the drugs ranged from 50 to 0.05 μg/assay. The tests were run in duplicate and were incubated appropriately with regard to oxygen requirements for 24 to 48 hrs as required. Anaerobic incubation was an atmosphere of 5% CO2, 10% H2, with the balance N2. The lowest concentration of an antimicrobial agent at which no visible growth is noted was referred to as the MIC. […] The method used was the same as described in Example 1.

Aa Y4 = assay: MIC microdilution, gram negative; type: cell-based, Actinobacillus actinomycetemcomitans
Protocol: as §5

P. ging 381 = assay: MIC microdilution, gram negative; type: cell-based, Porphyromonas gingivalis
Protocol: as §5

Pg 53977 = assay: MIC microdilution, gram negative; type: cell-based, Porphyromonas gingivalis
Protocol: as §5

B. fragilis = assay: MIC microdilution, gram negative; type: cell-based, Bacteroides fraglis
Protocol: as §5

Str. pn. R = assay: Mean Streptococcus MIC; type: cell-based; conditions: Table 5, mean; strain resistant to penicillin and erythromycin
Protocol: as §2, §3
(§6) This embodiment illustrates the efficacy of the compounds of the present invention against Streptococcus strains. One of the strains, Str.pn.R was obtained from the Children's Hospital in Buffalo (strain 00-041-0614). […] The sensitivity of this strain was tested against several known antibiotics.

Str. pn = assay: Mean Streptococcus MIC; type: cell-based; conditions: Table 5, mean
Protocol: as §2, §3, §6

S. species R = assay: Staphylococcus MIC; type: cell-based, staphylococcus species R; conditions: second Table 5 (Example 5); strain 00-045-1209
Protocol: as §2, §3, §4

[1] = test system: Str.pn.R (strain 00-041-0614); assay: Sensitivity of strain to known antibiotics; type: cell-based, Streptococcus; conditions: sensitive / resistant
Protocol: as §6

[2] = test system: staphylococcus species R (strain 00-045-1209); assay: Sensitivity of strain to known antibiotics; type: cell-based; conditions: sensitive / resistant
Protocol: as §4

[3] = Table 3 printed a second time, Gram Negative

Compound: O=C(c1ccc(O)c(C(=O)Nc2cccc(C(F)(F)F)c2)c1)c1ccc2ccccc2c1 [NA2mF]
- MIC S. mutans (S. mutans): NE (NE indicates that the drug was not effective at a concentration >50 micrograms/ml)
- MIC S. sanguis (S. sanguis): 0.8 micrograms/ml
- MIC S.salivarius (S.salivarius): 50 micrograms/ml
- MIC P. acnes 11828 (P. acnes 11828): 0.4 micrograms/ml
- MIC P. acnes 6922 (P. acnes 6922): 0.4 micrograms/ml
- MIC A. viscosus (A. viscosus): NE (NE indicates that the drug was not effective at a concentration >50 micrograms/ml)
- MIC S. aureus (S. aureus; Table 2, Gram Positive): NE (NE indicates that the drug was not effective at a concentration >50 micrograms/ml)
- MIC S. aureus (S. aureus; second Table 5 (Example 5)): NE (NE indicates that the drug was not effective at a concentration >50 micrograms/ml)
- MIC Lact 7496 (Lact 7496): 1.6 micrograms/ml
- MIC M. luteus (M. luteus): 0.8 micrograms/ml
- MIC Fuso. 25586 (Fuso. 25586; Table 3, Gram Negative): NE (NE indicates that the drug was not effective at a concentration >50 micrograms/ml)
- MIC Fuso. 25586 (Fuso. 25586; [3]): NE (NE indicates that the drug was not effective at a concentration >50 micrograms/ml)
- MIC Aa Y4 (Aa Y4; Table 3, Gram Negative): NE (NE indicates that the drug was not effective at a concentration >50 micrograms/ml)
- MIC Aa Y4 (Aa Y4; [3]): NE (NE indicates that the drug was not effective at a concentration >50 micrograms/ml)
- MIC P. ging 381 (P. ging 381; Table 3, Gram Negative): <0.4 micrograms/ml
- MIC P. ging 381 (P. ging 381; [3]): <0.4 micrograms/ml
- MIC Pg 53977 (Pg 53977; Table 3, Gram Negative): <0.4 micrograms/ml
- MIC Pg 53977 (Pg 53977; [3]): <0.4 micrograms/ml
- MIC B. fragilis (B. fragilis; Table 3, Gram Negative): NE (NE indicates that the drug was not effective at a concentration >50 micrograms/ml)
- MIC B. fragilis (B. fragilis; [3]): NE (NE indicates that the drug was not effective at a concentration >50 micrograms/ml)
- Mean Streptococcus MIC values Str. pn. R (Str. pn. R): 0.78 micrograms/ml
- Mean Streptococcus MIC values Str. pn (Str. pn): 0.84 micrograms/ml
- MIC S. species R (S. species R): 25.0 micrograms/ml

Compound: N#Cc1ccc(NC(=O)c2cc(C(=O)c3ccc4ccccc4c3)ccc2O)cc1 [NA2pC]
- MIC S. mutans (S. mutans): 1.6 micrograms/ml
- MIC S. sanguis (S. sanguis): 6.3 micrograms/ml
- MIC S.salivarius (S.salivarius): 50 micrograms/ml
- MIC P. acnes 11828 (P. acnes 11828): 6.3 micrograms/ml
- MIC P. acnes 6922 (P. acnes 6922): 6.3 micrograms/ml
- MIC A. viscosus (A. viscosus): 1.6 micrograms/ml
- MIC S. aureus (S. aureus; Table 2, Gram Positive): 6.3 micrograms/ml
- MIC S. aureus (S. aureus; second Table 5 (Example 5)): 6.3 micrograms/ml
- MIC Lact 7496 (Lact 7496): 6.3 micrograms/ml
- MIC M. luteus (M. luteus): 3.1 micrograms/ml
- MIC Fuso. 25586 (Fuso. 25586; Table 3, Gram Negative): 12.5 micrograms/ml
- MIC Fuso. 25586 (Fuso. 25586; [3]): 12.5 micrograms/ml
- MIC Aa Y4 (Aa Y4; Table 3, Gram Negative): 6.3 micrograms/ml
- MIC Aa Y4 (Aa Y4; [3]): 6.3 micrograms/ml
- MIC P. ging 381 (P. ging 381; Table 3, Gram Negative): 0.4 micrograms/ml
- MIC P. ging 381 (P. ging 381; [3]): 0.4 micrograms/ml
- MIC Pg 53977 (Pg 53977; Table 3, Gram Negative): 0.4 micrograms/ml
- MIC Pg 53977 (Pg 53977; [3]): 0.4 micrograms/ml
- MIC B. fragilis (B. fragilis; Table 3, Gram Negative): 3.1 micrograms/ml
- MIC B. fragilis (B. fragilis; [3]): 3.1 micrograms/ml
- Mean Streptococcus MIC values Str. pn. R (Str. pn. R): 3.12 micrograms/ml
- Mean Streptococcus MIC values Str. pn (Str. pn): 0.58 micrograms/ml
- MIC S. species R (S. species R): 12.5 micrograms/ml

Compound: CO[C@H]1/C=C/O[C@@]2(C)Oc3c(C)c(O)c4c(O)c(c(/C=N/N5CCN(C)CC5)c(O)c4c3C2=O)NC(=O)/C(C)=C\C=C\[C@H](C)[C@H](O)[C@@H](C)[C@@H](O)[C@@H](C)[C@H](OC(C)=O)[C@@H]1C [Rifampin]
- sensitivity of strain Str.pn.R to known antibiotics [1]: sensitive

Compound: N[C@@H]1[C@H]2CN(c3nc4c(cc3F)c(=O)c(C(=O)O)cn4-c3ccc(F)cc3F)C[C@@H]12 [Trovoflox]
- sensitivity of strain Str.pn.R to known antibiotics [1]: sensitive

Compound: CC1(C)S[C@@H]2[C@H](NC(=O)[C@H](N)c3ccc(O)cc3)C(=O)N2[C@H]1C(=O)O [amoxicillin]
- sensitivity of staphylococcus species R to known antibiotics [2]: resistant

Compound: CC[C@H]1OC(=O)[C@H](C)[C@@H](O[C@H]2C[C@@](C)(OC)[C@@H](O)[C@H](C)O2)[C@H](C)[C@@H](O[C@@H]2O[C@H](C)C[C@H](N(C)C)[C@H]2O)[C@](C)(O)C[C@@H](C)CN(C)[C@H](C)[C@@H](O)[C@]1(C)O [azithromycin]
- sensitivity of staphylococcus species R to known antibiotics [2]: resistant

Compound: CO/N=C(\C(=O)N[C@@H]1C(=O)N2C(C(=O)O)=C(COC(C)=O)CS[C@H]12)c1csc(N)n1 [cefotaxime]
- sensitivity of staphylococcus species R to known antibiotics [2]: resistant

Compound: Cc1onc(-c2ccccc2)c1C(=O)N[C@@H]1C(=O)N2[C@@H]1SC(C)(C)[C@@H]2C(=O)O [oxacillin]
- sensitivity of staphylococcus species R to known antibiotics [2]: resistant

Compound: penicillin
- sensitivity of strain Str.pn.R to known antibiotics [1]: resistant
